Measured values: patent US20080234233A1, “MEDICAMENT FOR TREATMENT OF NEURODEGENERATIVE DISEASES” (INSTITUTE OF MEDICINAL MOLECULAR DESIGN INC., priority 2002, published 2008)

Test system: NF-κ B activation
Test: Inhibitory activity of NF-κB activation, luciferase reporter assay under TNF-α stimulation in HepG2
Type: cell-based, human
Conditions: HepG2, TNF-α 40 ng/ml, 4 hours; for inhibition at 1 µg/mL / inhibition at 10 µg/mL: Homo sapiens, read-out: Inhibitory rate against NF-κB activation (%)
Procedure: Measurement of Inhibitory Activity of NF-κB activation
Using a transfection reagent (Effectene; QIAGEN), the human hepatoma cell strain HepG2 was transfected with a plasmid (pNF κ B-Luc Reporter Plasmid; […]) integrated with an oligonucleotide having five tandem copies of NF-κ B binding sequences([…]) on a upstream region of firefly luciferase gene(Luc) according to the QIAGEN's protocol, and the cells were incubated for 6 to 24 hours. After addition of TNF-α (40 ng/ml) in the presence or absence of a test compound, the cells were incubated for 4 hours, and intracellular luciferase activity was measured by using PicaGene LT (TOYO INK MFG Co., Ltd.) and a chemical luminescence measurement apparatus ([…]luor Plus; TECAN). The inhibitory ratio was measured as a ratio relative to the value of the luciferase activity in the absence of the test compound.

Row | SMILES | Inhibitory rate against NF-κB activation (%) (Drug concentration at 1 μg/mL) | Inhibitory rate against NF-κB activation (%) (Drug concentration at 10 μg/mL) | inhibition at 1 µg/mL (Drug concentration at 1 μg/mL) | inhibition at 10 µg/mL (Drug concentration at 10 μg/mL)
1 | O=C(Nc1cc(C(F)(F)F)ccc1N1CCC(C(F)(F)F)CC1)c1cc(Cl)ccc1O [compound 112] | 96.5% | 95.7% | – | –
2 | O=C(Nc1cc(C(F)(F)F)ccc1OCC(F)(F)F)c1cc(Cl)ccc1O [compound 113] | 90.5% | 96.2% | – | –
3 | Cc1cc(Oc2ccc(C(F)(F)F)cc2NC(=O)c2cc(Cl)ccc2O)cc(C)c1Cl [compound 115] | 90.7% | 98.4% | – | –
4 | O=C(Nc1cc(C(F)(F)F)ccc1N1CCCCC1)c1cc(Cl)ccc1O [compound 116] | 90.0% | 97.3% | – | –
5 | Cc1ccc(Oc2ccc(C(F)(F)F)cc2NC(=O)c2cc(Cl)ccc2O)cc1 [compound 117] | 92.8% | 92.6% | – | –
6 | O=C(Nc1cc(C(F)(F)F)ccc1Oc1ccc(Cl)cc1)c1cc(Cl)ccc1O [compound 118] | 95.0% | 99.5% | – | –
7 | O=C(Nc1cc(C(F)(F)F)ccc1Cl)c1cc(Cl)cnc1O [compound 119] | 85.4% | 86.9% | – | –
8 | CC(=O)Oc1ccccc1C(=O)Nc1cc(Cl)cc(Cl)c1 [compound 121] | 92.9% | 95.5% | – | –
9 | O=C(Nc1cc(F)cc(F)c1)c1cc(Br)ccc1O [compound 123] | 91.8% | 96.8% | – | –
10 | O=C(Nc1cc(Cl)cc(Cl)c1)c1cc(Br)cc(Br)c1O [compound 128] | 91.4% | 95.1% | – | –
11 | O=C(Nc1cc(Cl)cc(Cl)c1)c1ccc(Cl)cc1O [compound 129] | – | 71.8% | – | –
12 | O=C(Nc1cc(Cl)cc(Cl)c1)c1cc([N+](=O)[O-])ccc1O [compound 130] | – | 70.6% | – | –
13 | Cc1ccc(O)c(C(=O)Nc2cc(Cl)cc(Cl)c2)c1 [compound 131] | 49.1% | 88.7% | – | –
14 | O=C(Nc1cc([N+](=O)[O-])cc([N+](=O)[O-])c1)c1cc(Br)ccc1O [compound 133] | 91.0% | 95.6% | – | –
15 | CC(C)(C)c1ccc(C(C)(C)C)c(NC(=O)c2cc(Cl)ccc2O)c1 [compound 134] | 89.1% | 96.3% | – | –
16 | COc1ccc(C(C)(C)C)cc1NC(=O)c1cc(Cl)ccc1O [compound 135, 5-chloro-N-{5-[(1,1-dimethyl)ethyl]-2-methoxyphenyl}-2-hydroxybenzamide] | – | – | 86.2% | 99.2%
17 | COc1ccc(C(C)(C)C)cc1NC(=O)c1cc(Cl)ccc1OC(C)=O [compound 136] | 91.0% | 99.4% | – | –
18 | Cc1cc(C)cc(NC(=O)c2cc(Br)ccc2O)c1 [compound 137] | 86.3% | 92.6% | – | –
19 | CC(C)(C)c1cc(NC(=O)c2cc(Cl)ccc2O)cc(C(C)(C)C)c1 [compound 138, N-{3,5-bis[(1,1-dimethyl)ethyl]phenyl}-5-chloro-2-hydroxybenzamide] | – | – | 89.6% | 98.1%
20 | CC(=O)Oc1ccc(Cl)cc1C(=O)Nc1cc(C(C)(C)C)cc(C(C)(C)C)c1 [compound 139] | 90.8% | 94.7% | – | –
21 | CC(C)(C)c1cc(NC(=O)c2cc(Br)ccc2O)cc(C(C)(C)C)c1 [compound 140] | 70.9% | 82.0% | – | –
22 | COc1ccc(-c2ccccc2)cc1NC(=O)c1cc(Cl)ccc1O [compound 141] | 82.4% | 97.9% | – | –
23 | COc1ccc(OC)c(NC(=O)c2cc(Br)ccc2O)c1 [compound 142] | 32.4% | 95.7% | – | –

Row | SMILES | Inhibitory rate against NF-κB activation (%) (Drug concentration at 1 μg/mL) | Inhibitory rate against NF-κB activation (%) (Drug concentration at 10 μg/mL) | inhibition at 1 µg/mL (Drug concentration at 1 μg/mL) | inhibition at 10 µg/mL (Drug concentration at 10 μg/mL)
24 | COc1cc(NC(=O)c2cc(Br)ccc2O)cc(OC)c1 [compound 143] | 38.3% | 96.8% | – | –
25 | COC(=O)c1cc(NC(=O)c2cc(Br)ccc2O)cc(C(=O)OC)c1 [compound 144, 5-bromo-2-hydroxy-N-[3,5-bis(methoxycarbonyl)phenyl]benzamide] | – | – | – | 56.4%
26 | CC(C)(C)c1cc(NC(=O)c2cc([N+](=O)[O-])ccc2O)cc(C(C)(C)C)c1 [compound 146] | 91.2% | 98.5% | – | –
27 | Cc1ccc(O)c(C(=O)Nc2cc(C(C)(C)C)cc(C(C)(C)C)c2)c1 [compound 147] | 38.9% | 91.0% | – | –
28 | COc1ccc(C(C)(C)C)cc1NC(=O)c1cc(C)ccc1O [compound 149] | 37.4% | 87.1% | – | –
29 | Cc1ccc(C(C)C)cc1NC(=O)c1cc(Cl)ccc1O [compound 151] | 85.8% | 98.2% | – | –
30 | CCOc1ccc(OCC)c(NC(=O)c2cc(Cl)ccc2O)c1 [compound 152] | 35.1% | 95.3% | – | –
31 | Cc1ccc(C)c(NC(=O)c2cc(Cl)ccc2O)c1 [compound 153] | 88.3% | 97.1% | – | –
32 | N#Cc1ccc(Cl)cc1NC(=O)c1cc(Cl)ccc1O [compound 154] | 83.0% | 93.3% | – | –
33 | CCN(CC)S(=O)(=O)c1ccc(OC)c(NC(=O)c2cc(Cl)ccc2O)c1 [compound 155] | 11.2% | 90.2% | – | –
34 | O=C(Nc1cc([N+](=O)[O-])ccc1Cl)c1cc(Cl)ccc1O [compound 156] | 93.8% | 95.7% | – | –
35 | COc1ccc(C(=O)Nc2ccccc2)cc1NC(=O)c1cc(Cl)ccc1O [compound 157] | 52.6% | 98.8% | – | –
36 | COc1ccc(OC)c(NC(=O)c2cc(Cl)ccc2O)c1 [compound 158] | 52.4% | 96.8% | – | –
37 | COc1ccc(C)c(NC(=O)c2cc(Cl)ccc2O)c1 [compound 160] | 69.6% | 96.5% | – | –
38 | CCCCOc1ccc(OCCCC)c(NC(=O)c2cc(Cl)ccc2O)c1 [compound 161] | 94.2% | 97.6% | – | –
39 | CC(C)CCOc1ccc(OCCC(C)C)c(NC(=O)c2cc(Cl)ccc2O)c1 [compound 162] | 93.8% | 97.9% | – | –
40 | CCC(C)(C)c1ccc(Oc2ccccc2)c(NC(=O)c2cc(Cl)ccc2O)c1 [compound 164] | 97.6% | 98.3% | – | –
41 | CCCCCCOc1ccc(S(C)(=O)=O)cc1NC(=O)c1cc(Cl)ccc1O [compound 165] | 95.9% | 99.4% | – | –
42 | Cc1ccc(C(=O)C(C)(C)C)cc1NC(=O)c1cc(Cl)ccc1O [compound 166] | 94.1% | 96.4% | – | –
43 | COc1ccc(-n2cccc2)c(NC(=O)c2cc(Cl)ccc2O)c1 [compound 167] | 76.4% | 98.7% | – | –
44 | Cc1ccc(S(=O)(=O)c2ccc(Cl)cc2NC(=O)c2cc(Cl)ccc2O)cc1 [compound 168] | 46.7% | 97.8% | – | –
45 | Cc1ccc(S(=O)(=O)c2ccc(Cl)c(NC(=O)c3cc(Cl)ccc3O)c2)cc1 [compound 169] | 31.6% | 95.9% | – | –
